Results published in PMC9658316, “Discovery of Mitochondrial Complex I Inhibitors as Anticancer and Radiosensitizer Drugs Based on Compensatory Stimulation of Lactate Release” (Cancers, 2022).

Assays:
mitochondrial complex I = mitochondrial complex I (Mus musculus, UniProt P03888+Q91WD5+Q9DC70); assay: Seahorse OCR in permeabilized CT26 cancer cells, mitochondrial complex I inhibition (Assay #2); assay type: cell-based; conditions: for pattern of OCR inhibition activity relative to aa: 1 and 10 µM; for IC50: pyruvate/malate, tested at 1 and 10 µM, read-out: OCR inhib. (IC50)
Method: (§1) L-lactate concentration was measured in a semi-automated manner using CMA Microdialysis AB enzymatic assay and a CMA 600 analyzer (Aurora Borealis, Schoonebeek, The Netherlands) as previously described. Briefly, cells (2 × 10^5 cells per well; 3 wells/condition) were seeded in 12-well plates with 2 mL of their routine culture medium. After 24 h, medium was replaced by 500 µL of DMEM containing 10 mmol/L D-glucose and supplemented with 2 mmol/L L-glutamine and 10% dialyzed FBS (Sigma-Aldrich), in the presence of the compounds or vehicle (DMSO). The initial concentration of L-lactate in the experimental medium was also assessed by including control wells containing only cell culture medium (no cells) on each plate. After incubation for 24 h, extracellular media were collected and deproteinized by centrifugation (15 min, 10,000 rpm, 4 °C) in 10 kDa cut-off filter tubes (VWR, Avantor, Leuven, Belgium). Differences in L-lactate concentrations between control and treated cells were calculated and normalized by the protein content in each well and expressed in µmol/h/mg protein. Oxygen-consumption rate (OCR) was measured using the Seahorse XF96 plate reader as previously reported. Briefly, cells (2 × 10^4 cells per well) were first permeabilized with 1 nM Seahorse XF Plasma Membrane Permeabilizer (#102504-100; Agilent, Machelen, Belgium) and respiration was stimulated by adding 10 mM pyruvate, 5 mM malate, and 2 mM ADP. After baseline OCR determination, compounds were added (to inhibit complex I) followed by 10 mM succinate to fuel complex II and rescue the electron transport chain. In some experiments, the effects of selected hits on basal OCR were evaluated in intact cells (including in the presence of MCT1/2 inhibitor AR-C155858 [29] or methylpyruvate). OCR data were normalized according to protein content in each well.
(A–D). Graphs depict changes in O2 consumption rate (OCR) measured with the Seahorse technology on permeabilized CT26 cancer cells upon successive addition of pyruvate/malate, the indicated inhibitor and succinate. […] (E,F).

[1] = tested on: colorectal CT26 cancer cells; assay: Compound-induced L-lactate release (Assay #1), CT26; assay type: cell-based, mouse; conditions: 10 µM; for [LAC] increase: 24 h exposure, L-lactate secretion above basal release; for L-lactate release compared with reference compound aa: 24 h
Method: as §1
Figure 3 Compound-induced L-lactate release (Assay #1). Culture medium was collected after 24 h exposure to the indicated compounds (10 µM) and the amount of extracellular L-lactate release was determined in a semi-automated manner; dose-dependent effects of complex I inhibitor IACS are shown on the right (shaded bars). Bar graph depicts the extent of L-lactate secretion above the basal release as determined in the absence of any compound (n = 3, ** p < 0.01 for increased L-lactate release vs. reference compound aa).

[2] = tested on: breast cancer 4T1 cancer cells; assay: Compound-induced L-lactate release (Assay #1), 4T1; assay type: cell-based, mouse; conditions: 4T1 cells, 24 h
Method: L-lactate concentration was measured in a semi-automated manner using CMA Microdialysis AB enzymatic assay and a CMA 600 analyzer (Aurora Borealis, Schoonebeek, The Netherlands) as previously described. Briefly, cells (2 × 10^5 cells per well; 3 wells/condition) were seeded in 12-well plates with 2 mL of their routine culture medium. After 24 h, medium was replaced by 500 µL of DMEM containing 10 mmol/L D-glucose and supplemented with 2 mmol/L L-glutamine and 10% dialyzed FBS (Sigma-Aldrich), in the presence of the compounds or vehicle (DMSO). The initial concentration of L-lactate in the experimental medium was also assessed by including control wells containing only cell culture medium (no cells) on each plate. […] Differences in L-lactate concentrations between control and treated cells were calculated and normalized by the protein content in each well and expressed in µmol/h/mg protein. Oxygen-consumption rate (OCR) was measured using the Seahorse XF96 plate reader as previously reported. […] In some experiments, the effects of selected hits on basal OCR were evaluated in intact cells (including in the presence of MCT1/2 inhibitor AR-C155858 [29] or methylpyruvate). […]
Suppl. […] Culture medium was collected after 24h exposure to the indicated compounds and lactate content was determined in a semi-automated manner. […]

CT26 colon cancer cells = assay: Growth inhibitory effects on cultured CT26 cells (Presto Blue); assay type: cell-based, mouse; conditions: CT26 monolayers, 1 µM, 72 h
Text: (§2) Mouse colorectal CT26 and breast 4T1 cancer cells as well as human cervix cancer SiHa and breast MDA-MD-231 cancer cells were acquired from ATCC where they are regularly authenticated by short tandem repeat profiling. They were stored according to the supplier’s instructions and used within 6 months after resuscitation of frozen aliquots. Cancer cells were maintained in DMEM (Life Technologies, ThermoFischer scientific, Merebelke, Belgium) supplemented with 10% heat-inactivated FBS. All cell lines were tested for mycoplasma contamination with the MycoAlert™ Mycoplasma Detection kit (#LT07-318; Lonza, Verviers, Belgium) before being used. Cell integrity was determined by the Trypan Blue exclusion method (using Bürker chambers) while cell growth was assessed by using the Presto Blue reagent (Life Technologies) according to manufacturer’s instructions.
(§3) Figure 4 Mitochondrial complex I activity inhibition (Assay #2). (A–D). Graphs depict changes in O2 consumption rate (OCR) measured with the Seahorse technology on permeabilized CT26 cancer cells upon successive addition of pyruvate/malate, the indicated inhibitor and succinate. OXPHOS I inhibitor IACS was used as a control in the experiments testing reference compound aa (A), and compound aa (10µM) was used as reference for testing au, ah and at derivatives (B–D) (n = 6 per compound). (E,F). Growth inhibitory effects of cultured CT26 (E) and 4T1 […] cancer cells exposed to 100 nM IACS or 1 µM aa, ag, aj and au compounds for 72 h; data represent the reduced extent (expressed as %) of cell viability (determined with Presto Blue) when compared with vehicle conditions (n = 3).

breast 4T1 cancer cells = assay: Growth inhibitory effects on cultured 4T1 cells (Presto Blue); assay type: cell-based, mouse; conditions: 4T1 monolayers, 1 µM, 72 h, compared with CT26
Text: as §2, §3

intact CT26 cancer cells = assay: Seahorse basal OCR and ECAR in intact (non-permeabilized) CT26 cancer cells; assay type: cell-based, mouse; conditions: non-permeabilized CT26 cells, 10 µM
Method: as §1
Since other lactate transporters could be involved, we also used methylpyruvate which can bypass the need for a mitochondrial carrier and mimic the result of lactate oxidation by a mitochondrial LDH or ensure the delivery of pyruvate into the mitochondria matrix. […] In the same experiments carried out on non-permeabilized cancer cells, the extent of basal OCR inhibition in response to 10 µM aa was similar to that observed with 100 nM IACS-010759 (−52 ± 5% and −45 ± 6%, respectively) and mirrored by an increase in extracellular acidification rate (ECAR) (+36 ± 11% and +29 ± 9%, respectively).

[3] = Cell integrity by Trypan blue exclusion; assay type: cell-based; conditions: cancer cells (cell line not specified); 24 h after exposure; read-out: viable cancer cells (Trypan blue exclusion)
Text: as §2
Still, to support the anticancer potential of complex I inhibition, we also examined the cytotoxic effects of longer exposure of intact cancer cells to reference compound aa and hit compounds ag, aj and au. […] While the nature of cell death induced by aa derivatives is beyond the scope of this manuscript, alteration in mitochondria fitness and capacity to buffer calcium could be involved as previously reported.

[4] = tested on: human cervix Siha cancer cells; assay: Growth inhibitory effects on human cancer cells (Presto Blue), SiHa vs MDA-MB-231; assay type: cell-based; conditions: 1 µM
Text: as §2
Suppl. Figure S3. Growth inhibitory effects of hit compounds on human cancer cells. MDA-M B-231 (A) and Siha (B) cancer cells were exposed to 100 nM IACS or 1 µM aa, ag, aj and au compounds; data represent the reduced extent (expressed as %) of cell viability (determined with Presto Blue) when compared with vehicle conditions (n=3).
(also on this page, place not known: 60Growth inhibitory effects (%) MDA-MB-231 aa au 60Growth inhibitory effects (%))

3D tumor CT26 spheroids [5] = assay: Inhibition of 3D tumor spheroid growth (Assay #3); assay type: cell-based, mouse; conditions: for 3D growth inhib. (%): 3D tumor CT26 spheroids; for spheroid growth inhibition compared with reference compound aa: CT26 spheroids, day 10
Method: (§4) Spheroids were prepared by seeding 1500 cells/well in Ultra-Low Attachment 96-well plate (Corning, Merck, Hoeilaart, Belgium) in DMEM supplemented with 10% heat-inactivated FBS. Inhibitors were added on day 4 (mean diameter of spheroids: 300 µm) and renewed every 3 days. Spheroid growth was monitored using live-cell phase contrast microscope (Axio Observer, Zeiss, Zaventem, Belgium); spheroid area, density and morphology were measured using ImageJ software. Confocal fluorescence microscopy (LSM510, Zeiss, Zaventem, Belgium) was used for detecting pimonidazole immunostaining as previously reported. Spheroids from a same experiment were imaged with the same gain and exposure settings. In some experiments, OXPHOSi treatment was combined with irradiation using a ^137Cs γ-irradiator (IBL-637; CIS-BioInternational, Saclay, France) as previously described.
(§5) Figure 5 Inhibition of 3D tumor spheroid growth (Assay #3). […] Drug exposure without (A) or with irradiation (B) was associated with a significant reduction in spheroid sizes vs. untreated spheroids (not shown).

3D tumor CT26 spheroids [6] = assay: Pimonidazole immunostaining of hypoxia in spheroids; assay type: cell-based, mouse; conditions: treated spheroids
Method: as §4
(§6) Figure 6 Radiosensitizing effects of selected complex I inhibitors. (A) Extent of surviving cancer cells post-exposure to radiotherapy and the indicated compounds (n = 3, * p < 0.05, ** p < 0.01 vs. vehicle condition).

3D tumor CT26 spheroids [7] = assay: Radiosensitizing effects in 3D tumor spheroids (6 Gy irradiation); assay type: cell-based, mouse; conditions: 6 Gy irradiation at day 4, day 10 vs day 3
Method: as §4, §5
We also took advantage of 3D tumor spheroids to evaluate whether they could radiosensitize tumors upon O2 sparing resulting from inhibition of O2 consumption. […]

[8] = tested on: cancer cells from dissociated spheroids; assay: Regrowth of cells from dissociated spheroids after irradiation and compound; assay type: cell-based, mouse; conditions: plated for 14 days, compared with aa
Text: Finally, to document the expected re-oxygenation, spheroids treated with compounds aa, aj and am were exposed to the hypoxia probe pimonidazole.
as §6

| Compound | pattern of OCR inhibition activity relative to aa (mitochondrial complex I) | IC50 (mitochondrial complex I) | [LAC] increase [1] | L-lactate release compared with aa compound [2] | cytotoxic / growth inhibitory effects (CT26 colon cancer cells) | growth inhibitory activity (breast 4T1 cancer cells) | increase in extracellular acidification rate (ECAR) (intact CT26 cancer cells) | viability at 24 h [3] | antiproliferative effects in Siha compared with MDA-MB-231 cells [4] | concentration at which complex I-dependent OCR reduction was detectable (mitochondrial complex I) | reversal of OCR inhibition upon succinate addition (mitochondrial complex I; 10 mM succinate) | 3D growth inhib. (%) (3D tumor CT26 spheroids [5]) | spheroid growth inhibition compared with reference compound aa (3D tumor CT26 spheroids [5]) | reduction of hypoxia (pimonidazole) (3D tumor CT26 spheroids [6]) | L-lactate release compared with reference compound aa [1] | change in spheroid size with irradiation (3D tumor CT26 spheroids [7]) | ability of cancer cells to re-grow after irradiation and compound [8] |
| --- | --- | --- | --- | --- | --- | --- | --- | --- | --- | --- | --- | --- | --- | --- | --- | --- | --- |
| NCc1cn(Cc2cc(Cl)c(C(=O)c3ccc(Cl)cc3)c(Cl)c2)nn1 [at] | inactive | > 10 µM | ~0 µmol/h/mg | less potent |  |  |  |  |  |  |  |  |  |  |  |  |  |
| NC(=O)c1nnn(Cc2cc(Cl)c(C(=O)c3ccc(Cl)cc3)c(Cl)c2)c1N [compound aa, carboxyamidotriazole, reference compound] |  |  | ~2 µmol/h/mg |  | very limited effects | more significant growth inhibitory activity | +36 ± 11% | 90.9 ± 5.1% | Larger antiproliferative effects | 1 µM | full reversal of OCR inhibition |  |  |  |  |  |  |
| NC(=O)c1nnn(Cc2cc(Cl)c(C(=O)C3CCCCC3)c(Cl)c2)c1N [compound aj] |  |  | ~4 µmol/h/mg |  | very limited effects | more significant growth inhibitory activity |  |  | Larger antiproliferative effects |  |  | >50% | significantly more active than reference compound aa | reduced hypoxia to a larger extent than compound aa | more potent inducers of L-lactate release | net reduction in the spheroid size | much lesser ability to re-grow |
| NC(=O)c1nnn(Cc2cc(Cl)c(Cc3ccc(Cl)cc3)c(Cl)c2)c1N [compound am] |  | ~10 µM | ~4 µmol/h/mg |  |  |  |  |  |  |  |  | >50% | significantly more active than reference compound aa | reduced hypoxia to a larger extent than compound aa | more potent inducers of L-lactate release | net reduction in the spheroid size | much lesser ability to re-grow |
| COC(=O)c1cn(Cc2cc(Cl)c(C(=O)c3ccc(Cl)cc3)c(Cl)c2)nn1 [compound au] | equiactive |  | ~4 µmol/h/mg | more | very limited effects | more significant growth inhibitory activity |  |  | Larger antiproliferative effects |  |  | <25% | significantly lesser growth inhibitory effects than compound aa |  | more potent inducers of L-lactate release |  |  |
